Series [1] has as its system A549. Description: Cellular uptake in human A549 cells at 18.5 kBq after 1 to 120 mins by gamma-counting analysis. The class given is ADME, cell-based.
Series [2] is described as follows: Stability in mouse plasma assessed as compound remaining at 74 KBq after 24 hrs by reversed phase TLC analysis. The class given is ADME, cell-free. The settings on record: read-out: Stability.
Series [3] addresses NAD(P)H dehydrogenase [quinone] 1 (Homo sapiens, UniProt P15559). Kind of series: Activity of NOQ-1 expressed in human HT-29 cell lysate assessed as p-[125I]-iodophenol formation at 185 KBq after 2 hrs by reversed phase TLC analysis. The class given is ADME, cell-free. The settings on record: ht-29, 2 h.
For series [4], the system named is A549. Description: Drug metabolism in human A549 cells assessed as [125I]-I formation at 18.5 kBq after 60 mins by reversed phase TLC analysis. The series is classed as ADME, cell-based. The settings on record: a549, 1 h.
Series [5] can be described thus: Stability of the compound in cell culture media. The class given is physicochemical.
The subject of series [6] is A549. Description: Drug metabolism in human A549 cells assessed as p-[125I]-iodophenol formation at 18.5 kBq after 60 mins by reversed phase TLC analysis. The class given is ADME, cell-based. The settings on record: a549, 1 h.
The nature of series [7]: Stability of the compound in PBS assessed as compound remaining at 74 KBq at pH 7.4 after 24 hrs by reversed phase TLC analysis. The class given is physicochemical. Conditions: read-out: Stability; call rule not given here.
For series [8], the system named is HT-29. Description: Drug metabolism in human HT-29 cells assessed as p-[125I]-iodophenol formation at 18.5 kBq after 60 mins by reversed phase TLC analysis. The series is classed as ADME, cell-based. Conditions: ht-29, 1 h.
Series [9] relates to HT-29. Kind of series: Drug metabolism in human HT-29 cells assessed as [125I]-I formation at 18.5 kBq after 60 mins by reversed phase TLC analysis. The class given is ADME, cell-based. The settings on record: ht-29, 1 h.
Series [10] has as its system HT-29. Description: Drug metabolism in human HT-29 cells assessed as m-[125I]-iodophenol formation at 18.5 kBq after 60 mins by reversed phase TLC analysis. The class given is ADME, cell-based. Conditions: ht-29, 1 h.
Series [11] deals with HT-29. Kind of series: Cellular uptake in human HT-29 cells at 18.5 kBq after 2 hrs by gamma-counting analysis. The class given is ADME, cell-based. The settings on record: ht-29, 2 h.
Series [12] addresses NAD(P)H dehydrogenase [quinone] 1 (printed NOQ-1) (Homo sapiens, UniProt P15559). Kind of series: Activity of NOQ-1 expressed in human HT-29 cell lysate assessed as compound remaining at 185 KBq after 2 hrs by reversed phase TLC analysis. The class given is ADME, cell-free. The settings on record: read-out: Stability.
Series [13] has as its system HT-29. Description: Cellular uptake in human HT-29 cells at 18.5 kBq up to 5 mins by gamma-counting analysis. Conditions: ht-29, 5 min. The class given is ADME, cell-based.
Series [14] is described as follows: Drug metabolism in human HT-29 cells assessed as compound remaining at 18.5 kBq after 60 mins by reversed phase TLC analysis. Conditions: read-out: Stability. The series is classed as ADME, cell-based.
Series [15] can be described thus: Ratio of cellular uptake in human A549 cells to cellular uptake in human HT-29 cells. The class given is ADME, cell-based.
Series [16] concerns A549. Kind of series: Cellular uptake in human A549 cells at 18.5 kBq by gamma-counting analysis. The series is classed as ADME, cell-based.
In series [17] the test system is A549. Kind of series: Cellular uptake in human A549 cells at 18.5 kBq after 30 mins by gamma-counting analysis in presence of 3-([{4-Iodophenyl}thio]methyl)-5-methoxy-1,2-dimethyl-1H-indole-4,7-dione. The class given is ADME, cell-based. Conditions: a549, 0.5 h.
Series [18] can be described thus: Drug metabolism in human A549 cells assessed as compound remaining at 18.5 kBq after 60 mins by reversed phase TLC analysis. The class given is ADME, cell-based. The settings on record: read-out: Stability.
In series [19] the test system is HT-29. Description: Cellular uptake in human HT-29 cells at 18.5 kBq after 30 mins by gamma-counting analysis in presence of 3-([{4-Iodophenyl}thio]methyl)-5-methoxy-1,2-dimethyl-1H-indole-4,7-dione. The settings on record: ht-29, 0.5 h. The class given is ADME, cell-based.
In series [20] the test system is HT-29. Description: Drug level in human HT-29 cells treated with 18.5 kBq [125I]-3-([4-Iodophenoxy]methyl)-5-methoxy-1,2-dimethyl-1Hindole-4,7-dione after 60 mins by reversed phase TLC analysis. The class given is ADME, cell-based. Conditions: ht-29, 1 h.
Series [21] concerns A549. Kind of series: Drug level in human A549 cells treated with 18.5 kBq [125I]-3-([4-Iodophenoxy]methyl)-5-methoxy-1,2-dimethyl-1Hindole-4,7-dione after 60 mins by reversed phase TLC analysis. The class given is ADME, cell-based. The settings on record: a549, 1 h.
For series [22], the system named is HT-29. Description: Drug level in human HT-29 cells treated with 18.5 kBq [125I]-3-([3-Iodophenoxy]methyl)-5-methoxy-1,2-dimethyl-1Hindole-4,7-dione after 60 mins by reversed phase TLC analysis. The settings on record: ht-29, 1 h. The series is classed as ADME, cell-based.

Here are results for six compounds from ChEMBL document CHEMBL3351745, “Synthesis and in vitro evaluation of radioiodinated indolequinones targeting NAD(P)H: quinone oxidoreductase 1 for internal radiation therapy” (Bioorg Med Chem, 2014).

Chain of NAD(P)H dehydrogenase [quinone] 1 (printed NOQ-1) (P15559 whole entry): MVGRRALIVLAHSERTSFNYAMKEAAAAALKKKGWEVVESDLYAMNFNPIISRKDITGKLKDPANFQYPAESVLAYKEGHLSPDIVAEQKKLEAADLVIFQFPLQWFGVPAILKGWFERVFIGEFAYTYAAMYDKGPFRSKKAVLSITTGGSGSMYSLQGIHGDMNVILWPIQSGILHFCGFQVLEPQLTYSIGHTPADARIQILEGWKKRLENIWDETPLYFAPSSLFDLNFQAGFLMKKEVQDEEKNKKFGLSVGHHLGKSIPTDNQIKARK
Chain of NAD(P)H dehydrogenase [quinone] 1 (P15559 whole entry): as above

Turning to `COC1=CC(=O)c2c(c(COc3ccc([125I])cc3)c(C)n2C)C1=O`, the Drug uptake entry in the series with A549 [1], in the series with HT-29 [11] and in the series with HT-29 [13] was “Active” in each case. The remaining at 24 h, 74 KBq in series [2] was 80%; in [7] it was above 90%. In addition, the Drug metabolism result (in series [3]; with A549 [4]; in the series on A549 [6]; in the series with HT-29 [8]; in the series on HT-29 [9]; in the series with HT-29 [10]) was “metabolite_detected” each time. Also, in series [5], the Stability result is on record as “Stable”. In addition, the remaining at 2 h, 185 KBq in [12] is below 25%. Also, the remaining at 1 h, 18.5 kBq in series [14] was below 10%.

Take `COC1=CC(=O)c2c(c(COc3cccc([125I])c3)c(C)n2C)C1=O`: the remaining at 24 h, 74 KBq is 80% in [2] and above 90% in series [7]. In addition, in [5], the Stability entry is listed as “Stable”. The Drug metabolism result in the series on HT-29 [8], in the series on HT-29 [9] and in the series with HT-29 [10] was “metabolite_detected” each time. Also, the Drug uptake result in the series with HT-29 [11] and with HT-29 [13] was “Active” in each case. Moreover, the remaining at 1 h, 18.5 kBq in series [14] was below 10%.

For the compound `COC1=CC(=O)c2c(c(CSc3ccc([125I])cc3)c(C)n2C)C1=O`, the results for the remaining at 24 h, 74 KBq in series [2] and in [7] were above 97% and above 90%, respectively. For the same compound, in series [15], the Ratio amounted to 4. For the same compound, the Drug uptake result in the series on A549 [16] is “Dose-dependent effect”; in the series with A549 [17] it was “Not Active”; in the series on HT-29 [11], “Active”; in the series with HT-29 [19], “Not Active”. The Stability entry in series [5] was “Stable”. In addition, in [12], the remaining at 2 h, 185 KBq was found to be 92%. The remaining at 1 h, 18.5 kBq in [18] was above 85%.

As to `Oc1ccc([125I])cc1`, the Drug uptake result with HT-29 [20], in the series on A549 [21] and with HT-29 [22] was “Active” each time.

For `Oc1cccc([125I])c1`, the Drug uptake result in the series with HT-29 [20] and in the series on HT-29 [22] was “Active” throughout.

As to `[125IH]`, the Drug uptake result in the series on HT-29 [20], in the series with A549 [21] and with HT-29 [22] was “Active” in each case.
